Reference: US11555055B2, “Peptide inhibitors of insulin-degrading enzyme” (The Regents of the University of California, priority 2017, dated 2023)
“Also recorded” adds a separate entry of the source. Where a SMILES comes first, the peptide text is derived from it. Bridges are numbered along the chain shown (N, C = ends).

Legend:
[1] = system: primary murine skin fibroblasts; assay: Cell proliferation (CellTiter 96 AQueous); assay type: cell-based, mouse; conditions: 100 μM P12-3A, 10 nM insulin; not statistically significant
Method: (§1) FIG. 4A-F. Effects of P12-3A on cultured skin cells. A, Insulin concentrations as a function of time in logarithmically growing primary murine skin fibroblasts in the absence or presence of P12-3A (100 μM). […] Data are mean±SEM of 4 independent replications. *P<0.05, **P<0.01. B, Proliferation of cells in the absence or presence of P12-3A (100 μM). […] C,D,E, P12-3A (100 μM) potentiates insulin-induced collagen production in skin fibroblasts. Collagen production was assessed by COL1A1 mRNA levels (C), levels of hydroxyproline secreted into the medium (D), and cell-associated mature alpha-1 type I collagen levels detected by Western blotting (E). […] Migration of HaCaT cells 48 h after induction of a scratch wound in the presence of the indicated quantities of insulin and/or P12-3A (100 μM). […]
(§2) Insulin promotes wound healing and overall skin health by affecting a number of processes, including cell proliferation (2,3), cell migration (5,6), and the production and secretion of ECM components, particularly type I collagen (7-13). We therefore assessed the ability of P12-3A to influence these processes in cultured skin fibroblasts and keratinocytes. To that end, primary mouse skin fibroblasts were grown for 4 d in multiple concentrations of insulin in the presence or absence of P12-3A, and insulin concentration over time was monitored by ELISA. […]

[2] = system: primary murine skin fibroblasts; assay: Western blotting of cell-associated mature alpha-1 type I collagen; assay type: cell-based, mouse; conditions: P12-3A 100 μM
Method: as §1, §2

Structure (SMILES): CC(C)C[C@H](NC(=O)[C@H](CO)NC(=O)[C@@H](N)CCC(N)=O)C(=O)N1CCC[C@H]1C(=O)N[C@@H](Cc1c[nH]c2ccccc12)C(=O)N[C@H]1CSSC[C@@H](C(=O)N[C@H](C(=O)N[C@H](C(N)=O)[C@@H](C)O)C(C)C)NC(=O)[C@H](Cc2c[nH]cn2)NC(=O)[C@@H]2CCCN2C(=O)[C@H](Cc2ccc(O)cc2)NC1=O [Peptide P12-3A] (H-QSLPWCYPHCVT-NH2; disulfide 6-10 (inferred))
- cell proliferation [1]: modestly increased; also recorded: No significant differences
- mature, cell-associated collagen levels [2]: increased
